Experimental data taken from US20180282275A1, “New alkynyl-substituted 3-phenylpyrrolidine-2,4-diones and use thereof as herbicides” (Bayer CropScience Aktiengesellschaft, priority 2015, published 2018).

Assays:
Type in all cases: in vivo
Avena fatua [1] = test: Pre-emergence herbicidal effect, greenhouse pot test; settings: 504 h, 320 g a.i./ha, visual score after 3 weeks, 100% = plants have died, 0% = like control, read-out: Herbicidal effect against [%] AVEFA
From the text: (§1) Seeds of monocotyledonous and dicotyledonous weed plants and crop plants are laid out in wood-fibre pots in sandy loam and covered with soil. The compounds according to the invention formulated in the form of wettable powders (WP) or as emulsion concentrates (EC) are then applied as aqueous suspension or emulsion at a water application rate of 600 to 800 l/ha (converted) with the addition of 0.2% wetting agent to the surface of the covering soil. After the treatment, the pots are placed in a greenhouse and kept under good growth conditions for the trial plants. The damage to the test plants is scored visually after a test period of 3 weeks by comparison with untreated controls (herbicidal activity in percent (%): 100% activity=the plants have died, 0% activity=like control plants). [table]

Setaria viridis [2] = test: as above; settings: 504 h, 320 g a.i./ha, visual score after 3 weeks, 100% = plants have died, 0% = like control, read-out: Herbicidal effect against [%] SETVI
From the text: as §1

Echinochloa crus-galli [3] = test: as above; settings: 504 h, 320 g a.i./ha, visual score after 3 weeks, 100% = plants have died, 0% = like control, read-out: Herbicidal effect against [%] ECHCG
From the text: as §1

Lolium multiflorum = test: as above; settings: 320 g a.i./ha, visual score after 3 weeks, 100% = plants have died, 0% = like control
From the text: as §1

Alopecurus myosuroides [4] = test: as above; settings: 504 h, 320 g a.i./ha, visual score after 3 weeks, 100% = plants have died, 0% = like control, read-out: Herbicidal effect against [%] ALOMY
From the text: as §1

Setaria viridis [5] = test: Post-emergence herbicidal effect, greenhouse pot test; settings: 504 h, 80 g a.i./ha, one-leaf stage, visual score after about 3 weeks, 100% = plants have died, read-out: Herbicidal effect against [%] SETVI
Method: (§2) [table] Seeds of monocotyledonous and dicotyledonous weed and crop plants are laid out in sandy loam in wood-fibre pots, covered with soil and cultivated in a greenhouse under good growth conditions. 2 to 3 weeks after sowing, the test plants are treated at the one-leaf stage. The compounds according to the invention, formulated in the form of wettable powders (WP) or as emulsion concentrates (EC), are then sprayed as aqueous suspension or emulsion at a water application rate of 600 to 800 l/ha (converted) with the addition of 0.2% of wetting agent onto the green parts of the plants. After the test plants have been left to stand in the greenhouse under optimal growth conditions for about 3 weeks, the action of the preparations is assessed visually in comparison to untreated controls (herbicidal action in percent (%): 100% activity=the plants have died, 0% activity=like control plants).

Echinochloa crus-galli [6] = test: as above; settings: 504 h, 80 g a.i./ha, one-leaf stage, visual score after about 3 weeks, 100% = plants have died, read-out: Herbicidal effect against [%] ECHCG
Method: as §2

Alopecurus myosuroides [7] = test: as above; settings: 504 h, 80 g a.i./ha, one-leaf stage, visual score after about 3 weeks, 100% = plants have died, read-out: Herbicidal effect against [%] ALOMY
Method: as §2

Lolium rigidium [8] = test: Pre-emergence herbicidal effect, greenhouse pot test; settings: 320 g a.i./ha, visual score after 3 weeks, 100% = plants have died, 0% = like control
From the text: as §1

Hordeum murinum [9] = test: as above; settings: 320 g a.i./ha, visual score after 3 weeks, 100% = plants have died, 0% = like control
From the text: as §1

Cyperus esculentus = test: as above; settings: 320 g a.i./ha, visual score after 3 weeks, 100% = plants have died, 0% = like control
From the text: as §1

Stellaria media = test: Post-emergence herbicidal effect, greenhouse pot test; settings: 80 g a.i./ha, one-leaf stage, visual score after about 3 weeks, 100% = plants have died
Method: as §2

Avena fatua [10] = test: as above; settings: 80 g a.i./ha, one-leaf stage, visual score after about 3 weeks, 100% = plants have died
Method: as §2

Lolium rigidium [11] = test: as above; settings: 80 g a.i./ha, one-leaf stage, visual score after about 3 weeks, 100% = plants have died
Method: as §2

Hordeum murinum [12] = test: as above; settings: 80 g a.i./ha, one-leaf stage, visual score after about 3 weeks, 100% = plants have died
Method: as §2

Row | Compound | pest or weed control at 320 g/ha (Avena fatua [1]) [%] | pest or weed control at 320 g/ha (Setaria viridis [2]) [%] | pest or weed control at 320 g/ha (Echinochloa crus-galli [3]) [%] | Herbicidal effect against [%] LOLMU (Lolium multiflorum) [%] | pest or weed control at 320 g/ha (Alopecurus myosuroides [4]) [%] | pest or weed control at 80 g/ha (Setaria viridis [5]) [%] | pest or weed control at 80 g/ha (Echinochloa crus-galli [6]) [%] | pest or weed control at 80 g/ha (Alopecurus myosuroides [7]) [%] | Herbicidal effect against [%] LOLRI (Lolium rigidium [8]) [%] | Herbicidal effect against [%] HORMU (Hordeum murinum [9]) [%] | Herbicidal effect against [%] CYPES (Cyperus esculentus) [%] | Herbicidal effect against [%] STEME (Stellaria media) [%] | Herbicidal effect against [%] AVEFA (Avena fatua [10]) [%] | Herbicidal effect against [%] LOLRI (Lolium rigidium [11]) [%] | Herbicidal effect against [%] HORMU (Hordeum murinum [12]) [%]
1 | CCOC(=O)OC1=C(c2c(C)cc(C#CC3CC3)cc2CC)C(=O)NC12CCC(OC)CC2 (stereo not shown) [Example P14] | 80 to 100 | 80 to 100 | 80 to 100 | 100 | 80 to 100 | 90 to 100 | 90 to 100 | 90 to 100 | – | – | – | – | – | – | –
2 | CC#Cc1cc(C)c(C2=C(OC(=O)C(C)C)C3(CCC(OCC)CC3)NC2=O)c(C)c1 (stereo not shown) [Example P8] | 80 to 100 | 80 to 100 | 80 to 100 | – | 80 to 100 | 80 to 100 | 80 to 100 | 80 to 100 | 100 | 100 | 100 | 60 | 100 | 100 | 100
3 | CC#Cc1cc(C)c(C2=C(OC(=O)OCC)C3(CCC(OCC)CC3)NC2=O)c(C)c1 (single isomer, unassigned) [Example P5] | 80 to 100 | 80 to 100 | 80 to 100 | – | 80 to 100 | 80 to 100 | 80 to 100 | 80 to 100 | 100 | 100 | 100 | 100 | 100 | 100 | 100
4 | CCc1cc(C#CC2CC2)cc(C)c1C1=C(O)C2(CCC(OC)CC2)NC1=O (stereo not shown) [Example D10] | 80 to 100 | 80 to 100 | 80 to 100 | 100 | 80 to 100 | 90 to 100 | 90 to 100 | 90 to 100 | – | – | – | – | – | – | –
5 | CC#Cc1cc(C)c(C2=C(OC(=O)OCC)C3(CCC(OCC)CC3)NC2=O)c(CC)c1 (stereo not shown) [Example P10] | 80 to 100 | 80 to 100 | 80 to 100 | – | 80 to 100 | 80 to 100 | 80 to 100 | 80 to 100 | 100 | 90 | – | 10 | 90 | 100 | 100
6 | CC#Cc1cc(C)c(C2=C(OC(=O)OC)C3(CCC(OCC)CC3)NC2=O)c(C)c1 (stereo not shown) [Example P7] | 80 to 100 | 80 to 100 | 80 to 100 | – | 80 to 100 | 80 to 100 | 80 to 100 | 80 to 100 | 100 | 100 | 100 | 100 | 100 | 100 | 100
7 | CC#Cc1cc(C)c(C2=C(O)C3(CCC(OCC)CC3)NC2=O)c(C)c1 (stereo not shown) [Example D7] | – | – | – | – | – | – | – | – | 100 | 100 | – | 20 | 100 | 100 | 60
8 | CC#Cc1cc(C)c(C2=C(O)C3(CCC(OCC)CC3)NC2=O)c(CC)c1 (stereo not shown) [Example D4] | 80 to 100 | 80 to 100 | 80 to 100 | – | 80 to 100 | 80 to 100 | 80 to 100 | 80 to 100 | 100 | 100 | 70 | 10 | 100 | 100 | 100
9 | CC#Cc1cc(C)c(C2=C(O)C3(CCC(OCC)CC3)NC2=O)c(C)c1 (stereo not shown) [Example S3] | – | – | – | – | – | – | – | – | 100 | 100 | 80 | 100 | 100 | 100 | 100
10 | CCc1cc(C#CC2CC2)cc(C)c1C1=C(OC(=O)C(C)C)C2(CCC(OC)CC2)NC1=O (stereo not shown) [Example P15] | 80 to 100 | 80 to 100 | 80 to 100 | 100 | 80 to 100 | 90 to 100 | 90 to 100 | 90 to 100 | – | – | – | – | – | – | –
11 | CC#Cc1cc(C)c(C2=C(OC(=O)OCC)C3(CCC(OCC)CC3)NC2=O)c(CC)c1 (stereo not shown) [Example P9] | – | – | – | – | – | – | – | – | 100 | 100 | 60 | 40 | 100 | 100 | 100
12 | CC#Cc1cc(C)c(C2=C(O)C3(CCC(OCC)CC3)NC2=O)c(CC)c1 (stereo not shown) [Example S4] | – | – | – | – | – | – | – | – | 100 | 100 | 60 | 10 | 100 | 100 | 100
13 | CC#Cc1cc(C)c(C2=C(O)C3(CCC(OCC)CC3)NC2=O)c(C)c1 (stereo not shown) [Example D6] | – | 80 to 100 | 80 to 100 | – | 80 to 100 | 80 to 100 | 80 to 100 | 80 to 100 | 100 | 100 | 100 | 90 | 100 | 100 | 100
14 | CC#Cc1cc(C)c(C2=C(OC(=O)OCC)C3(CCC(OCC)CC3)NC2=O)c(C)c1 (single isomer, unassigned) [Example P6] | – | – | – | – | – | – | – | – | 100 | 90 | 90 | 20 | 90 | 100 | 80
15 | COC1CCC2(CC1)NC(=O)C(c1c(C)cc(C#CC3CC3)cc1C)=C2O (stereo not drawn) [Example D11, cis-3-[4-(Cyclopropylethynyl)-2,6-dimethylphenyl]-4-hydroxy-8-methoxy-1-azaspiro[4.5]dec-3-en-2-one] | 80 to 100 | 80 to 100 | 80 to 100 | 100 | 80 to 100 | 90 to 100 | 90 to 100 | 90 to 100 | – | – | – | – | – | – | –
